Assay results as given in US20180305669A1, “MICROTISSUE FORMATION USING STEM CELL-DERIVED HUMAN HEPATOCYTES” (FUJIFILM Cellular Dynamics, Inc., priority 2015, published 2018).

Experiments:
CYP1A2 = assay: P450-GLO CYP1A2 assay, drug-induced CYP activity in 3-D microtissue of iCell Hepatocytes; details: day 6 spheroids, 20% GELTREX, about 0.1 to 100 μM for about 24 hours

## O=C(O)Cc1ccccc1Nc1c(Cl)cccc1Cl [Diclofenac]
iCell Hepatocytes
  hepatotoxicity response: Increased sensitivity

## COc1ccc2[nH]c([S+]([O-])Cc3ncc(C)c(OC)c3C)nc2c1 (stereo not drawn) [Omeprazole]
CYP1A2
  induction of CYP1A2 activity: about 2.5 fold

## Cc1ccc(C(=O)c2cc(O)c(O)c([N+](=O)[O-])c2)cc1 [Tolcapone]
iCell Hepatocytes
  hepatotoxicity response: Increased sensitivity
